System: Phytophthora infestans
Assay: not given
Type: in vivo, Phytophthora infestans on tomato
Conditions: hydrazone 50 ppm with 50 μM CuCl2.2H2O, applied 24 h before inoculation; assessed 7 days after inoculation; tomato late blight

| Compound | TLB % Control [%] |
| --- | --- |
| COc1ccc(/C(C)=N/NC(=O)c2ccccc2O)c(O)c1OC [Example 562] | 91.0 |
| O=C(N/N=C/c1cc(Cl)cc(Cl)c1O)c1cc2ccccc2cc1O [Example 563] | 70.0 |
| C/C(=N\NC(=O)c1cc2ccccc2cc1O)c1cc(Cl)cc(Cl)c1O [Example 564] | 1.3 |
| C/C(=N\NC(=O)c1cccc(C)c1O)c1cc(Cl)cc(Cl)c1O [Example 565] | 98.0 |
| COc1cc(O)c(/C(C)=N/NC(=O)c2ccc(C)cc2)c(OC)c1 [Example 566] | 70.0 |
| COc1cc(O)c(/C(C)=N/NC(=O)c2cccc(Cl)c2)c(OC)c1 [Example 567] | 14.0 |
| COc1cc(O)c(/C(C)=N/NC(=O)c2ccc(Cl)cc2)c(OC)c1 [Example 568] | 61.0 |
| COc1ccc(C(=O)N/N=C(\C)c2c(O)cc(OC)cc2OC)cc1 [Example 569] | 70.0 |
| COc1cc(O)c(/C(C)=N/NC(=O)c2ccc(Br)cc2)c(OC)c1 [Example 570] | 39.0 |
| COc1cc(O)c(/C(C)=N/NC(=O)c2ccc(C(F)(F)F)cc2)c(OC)c1 [Example 571] | 31.0 |
| C/C(=N\NC(=O)c1ccccc1)c1cc(F)cc(F)c1O [Example 572] | 94.0 |
| C/C(=N\NC(=O)c1ccccc1C)c1cc(F)cc(F)c1O [Example 573] | 93.0 |
| C/C(=N\NC(=O)c1cccc(C)c1)c1cc(F)cc(F)c1O [Example 574] | 93.0 |
| C/C(=N\NC(=O)c1ccc(C)cc1)c1cc(F)cc(F)c1O [Example 575] | 100.0 |
| C/C(=N\NC(=O)c1ccccc1Cl)c1cc(F)cc(F)c1O [Example 576] | 90.0 |
| C/C(=N\NC(=O)c1cccc(Cl)c1)c1cc(F)cc(F)c1O [Example 577] | 100.0 |
| COc1ccc(C(=O)N/N=C(\C)c2cc(F)cc(F)c2O)cc1 [Example 579] | 97.0 |

System: Leptosphaeria nodorum (LEPTNO)
Assay: In vitro fungitoxicity of hydrazones with and without copper towards Leptosphaeria nodorum (Example 26)
Type: cell-based
Conditions: Parastagonospora nodorum, 72 h, copper-minus medium; test compound Concn. 0.05 μg/mL; 72 h at 25° C.; read-out: LEPTNO % Inhn. Minus Copper Observed

| Compound | inhibition of growth at 0.05 µg/mL [%] |
| --- | --- |
| COc1ccc(/C(C)=N/NC(=O)c2ccccc2O)c(O)c1OC [Example 562] | 1.4 |
| O=C(N/N=C/c1cc(Cl)cc(Cl)c1O)c1cc2ccccc2cc1O [Example 563] | 20.6 |
| C/C(=N\NC(=O)c1cc2ccccc2cc1O)c1cc(Cl)cc(Cl)c1O [Example 564] | 17.4 |
| C/C(=N\NC(=O)c1cccc(C)c1O)c1cc(Cl)cc(Cl)c1O [Example 565] | 12.2 |
| COc1cc(O)c(/C(C)=N/NC(=O)c2ccc(C)cc2)c(OC)c1 [Example 566] | 6.8 |
| COc1cc(O)c(/C(C)=N/NC(=O)c2cccc(Cl)c2)c(OC)c1 [Example 567] | 2.5 |
| COc1cc(O)c(/C(C)=N/NC(=O)c2ccc(Cl)cc2)c(OC)c1 [Example 568] | 8 |
| COc1ccc(C(=O)N/N=C(\C)c2c(O)cc(OC)cc2OC)cc1 [Example 569] | 6.1 |
| COc1cc(O)c(/C(C)=N/NC(=O)c2ccc(Br)cc2)c(OC)c1 [Example 570] | 3.2 |
| COc1cc(O)c(/C(C)=N/NC(=O)c2ccc(C(F)(F)F)cc2)c(OC)c1 [Example 571] | 0 |
| C/C(=N\NC(=O)c1ccccc1)c1cc(F)cc(F)c1O [Example 572] | 2.5 |
| C/C(=N\NC(=O)c1ccccc1C)c1cc(F)cc(F)c1O [Example 573] | 2.4 |
| C/C(=N\NC(=O)c1cccc(C)c1)c1cc(F)cc(F)c1O [Example 574] | 2.8 |
| C/C(=N\NC(=O)c1ccc(C)cc1)c1cc(F)cc(F)c1O [Example 575] | 0 |
| C/C(=N\NC(=O)c1ccccc1Cl)c1cc(F)cc(F)c1O [Example 576] | 0.7 |
| C/C(=N\NC(=O)c1cccc(Cl)c1)c1cc(F)cc(F)c1O [Example 577] | 1.9 |
| COc1ccc(C(=O)N/N=C(\C)c2cc(F)cc(F)c2O)cc1 [Example 579] | 0 |

Same assay, conditions: copper-plus medium (CuCl2 10 μM); test compound Concn. 0.05 μg/mL; 72 h at 25° C.

| Compound | LEPTNO % Inhn. Plus Copper Observed [%] |
| --- | --- |
| COc1ccc(/C(C)=N/NC(=O)c2ccccc2O)c(O)c1OC [Example 562] | 97.3 |
| O=C(N/N=C/c1cc(Cl)cc(Cl)c1O)c1cc2ccccc2cc1O [Example 563] | 96.9 |
| C/C(=N\NC(=O)c1cc2ccccc2cc1O)c1cc(Cl)cc(Cl)c1O [Example 564] | 94.2 |
| C/C(=N\NC(=O)c1cccc(C)c1O)c1cc(Cl)cc(Cl)c1O [Example 565] | 97.4 |
| COc1cc(O)c(/C(C)=N/NC(=O)c2ccc(C)cc2)c(OC)c1 [Example 566] | 95.9 |
| COc1cc(O)c(/C(C)=N/NC(=O)c2cccc(Cl)c2)c(OC)c1 [Example 567] | 42.3 |
| COc1cc(O)c(/C(C)=N/NC(=O)c2ccc(Cl)cc2)c(OC)c1 [Example 568] | 94.3 |
| COc1ccc(C(=O)N/N=C(\C)c2c(O)cc(OC)cc2OC)cc1 [Example 569] | 15.8 |
| COc1cc(O)c(/C(C)=N/NC(=O)c2ccc(Br)cc2)c(OC)c1 [Example 570] | 97.2 |
| COc1cc(O)c(/C(C)=N/NC(=O)c2ccc(C(F)(F)F)cc2)c(OC)c1 [Example 571] | 84.7 |
| C/C(=N\NC(=O)c1ccccc1)c1cc(F)cc(F)c1O [Example 572] | 97.4 |
| C/C(=N\NC(=O)c1ccccc1C)c1cc(F)cc(F)c1O [Example 573] | 98.4 |
| C/C(=N\NC(=O)c1cccc(C)c1)c1cc(F)cc(F)c1O [Example 574] | 98.3 |
| C/C(=N\NC(=O)c1ccc(C)cc1)c1cc(F)cc(F)c1O [Example 575] | 98.1 |
| C/C(=N\NC(=O)c1ccccc1Cl)c1cc(F)cc(F)c1O [Example 576] | 97.9 |
| C/C(=N\NC(=O)c1cccc(Cl)c1)c1cc(F)cc(F)c1O [Example 577] | 97.9 |
| COc1ccc(C(=O)N/N=C(\C)c2cc(F)cc(F)c2O)cc1 [Example 579] | 97.6 |

System: not given
Assay: not given
Conditions: not given

| Compound | melting point [°C] |
| --- | --- |
| COc1ccc(/C(C)=N/NC(=O)c2ccccc2O)c(O)c1OC [Example 562] | 279 to 297 |
| O=C(N/N=C/c1cc(Cl)cc(Cl)c1O)c1cc2ccccc2cc1O [Example 563] | 287 to 292 |
| C/C(=N\NC(=O)c1cc2ccccc2cc1O)c1cc(Cl)cc(Cl)c1O [Example 564] | 312 to 315 |
| C/C(=N\NC(=O)c1cccc(C)c1O)c1cc(Cl)cc(Cl)c1O [Example 565] | 278 to 279 |
| COc1cc(O)c(/C(C)=N/NC(=O)c2ccc(C)cc2)c(OC)c1 [Example 566] | 177 to 184 |
| COc1cc(O)c(/C(C)=N/NC(=O)c2cccc(Cl)c2)c(OC)c1 [Example 567] | 206 to 215 |
| COc1cc(O)c(/C(C)=N/NC(=O)c2ccc(Cl)cc2)c(OC)c1 [Example 568] | 136 to 140 |
| COc1ccc(C(=O)N/N=C(\C)c2c(O)cc(OC)cc2OC)cc1 [Example 569] | 143 to 146 |
| COc1cc(O)c(/C(C)=N/NC(=O)c2ccc(Br)cc2)c(OC)c1 [Example 570] | 134 to 159 |
| COc1cc(O)c(/C(C)=N/NC(=O)c2ccc(C(F)(F)F)cc2)c(OC)c1 [Example 571] | 131 to 133 |
| C/C(=N\NC(=O)c1ccccc1)c1cc(F)cc(F)c1O [Example 572] | 222 to 225 |
| C/C(=N\NC(=O)c1ccccc1C)c1cc(F)cc(F)c1O [Example 573] | 186 to 188 |
| C/C(=N\NC(=O)c1cccc(C)c1)c1cc(F)cc(F)c1O [Example 574] | 215 to 216 |
| C/C(=N\NC(=O)c1ccc(C)cc1)c1cc(F)cc(F)c1O [Example 575] | 220 to 222 |
| C/C(=N\NC(=O)c1ccccc1Cl)c1cc(F)cc(F)c1O [Example 576] | 205 to 209 |
| C/C(=N\NC(=O)c1cccc(Cl)c1)c1cc(F)cc(F)c1O [Example 577] | 279 to 282 |
| COc1ccc(C(=O)N/N=C(\C)c2cc(F)cc(F)c2O)cc1 [Example 579] | 243 to 247 |
